According to PubChem BioAssay (NCI):
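The compound was tested at five concentrations on cells cultured in 96-well plates, with a 48-hour exposure period. The concentration for full growth arrest is given as TGI.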

Experiments:
Assay in all cases: NCI anticancer screen, dose series, 48 h
DMS 114 small cell lung = system: DMS 114 small cell lung
DLD-1 colon = system: DLD-1 colon
KM20L2 colon = system: KM20L2 colon
DMS 273 small cell lung = system: DMS 273 small cell lung
HOP-18 NSCLC = system: HOP-18 NSCLC
RXF-631 renal = system: RXF-631 renal

Compound: COS(=O)c1cc(Cl)cc(Cl)c1O (centres undefined)
- TGI (DMS 114 small cell lung): > 100 µM
- TGI (DLD-1 colon): > 100 µM

Compound: C=C1C[C@]23C[C@@]1(O)CC[C@H]2[C@@]12C=C[C@H](O)[C@@](C)(C(=O)O1)[C@H]2[C@@H]3C(=O)O
- TGI (KM20L2 colon): > 100 µM
- TGI (DMS 273 small cell lung): > 100 µM
- TGI (DMS 114 small cell lung): > 100 µM
- TGI (DLD-1 colon): > 100 µM

Compound: CCN(CC)CCCNc1ccc2nnn3c4ccc(O)cc4c(=O)c1c23
- TGI (HOP-18 NSCLC): 29.8 µM
- TGI (RXF-631 renal): 17.4 µM
- TGI (KM20L2 colon): 18.7 µM
- TGI (DMS 273 small cell lung): 17.9 µM
- TGI (DMS 114 small cell lung): 25.1 µM
- TGI (DLD-1 colon): 19 µM

Compound: CCOC(=O)C(C(=O)Cc1ccccc1)c1ccccc1 (centres undefined)
- TGI (KM20L2 colon): > 100 µM
- TGI (DLD-1 colon): > 100 µM
